# Literature values, collected in patent publication US6356845B1, “Crystallization and structure determination of Staphylococcus aureus UDP-N-acetylenolpyruvylglucosamine reductase (S. aureus MurB)” (priority 1999, dated 2002).
# Biological target: T1, S. aureus MurB (Staphylococcus aureus, UniProt P61431)
# T1 construct: His6; made in house; host or cells: E. coli K12S (F' lacIq), plasmid pQE-10 murB obtained from Human Genome Sciences
# Settings: read-out: Km for EP-UDPGlcNAc with S. aureus MurB; substrate Km; S. Swaney, personal communication
compound,measurement,value
"C=C(O[C@H]1[C@H](O)[C@@H](CO)O[C@H](OP(=O)(O)OP(=O)(O)OC[C@H]2O[C@@H](n3ccc(=O)[nH]c3=O)[C@H](O)[C@@H]2O)[C@@H]1NC(C)=O)C(=O)O [EP-UDPGlcNAc, Uridine diphospho-N-acetylglucosamine enolpyruvate]",Km,15 µM
